Structures can show the parent of a compound that is named as a salt.
Legend:
histamine H3 receptor [1] = biological target: T1, histamine H3 receptor (Rattus norvegicus, UniProt Q9QYN8); assay: Histamine H3 receptor binding assay ([3H]-Nα-methylhistamine binding to rat striatum homogenate); conditions: 1 μmol/L test compound; [3H]-Nα-methylhistamine 1 nmol/L; striata of Sprague-Dawley male rats, 25° C., 1 hour; read-out: Inhibition ratio of [3H]-Nα-methylhistamine binding
T1 construct: from tissue; host or cells: rat striatum (Sprague-Dawley, male, 6 weeks), membrane homogenate
T1 sequence (Q9QYN8 whole entry): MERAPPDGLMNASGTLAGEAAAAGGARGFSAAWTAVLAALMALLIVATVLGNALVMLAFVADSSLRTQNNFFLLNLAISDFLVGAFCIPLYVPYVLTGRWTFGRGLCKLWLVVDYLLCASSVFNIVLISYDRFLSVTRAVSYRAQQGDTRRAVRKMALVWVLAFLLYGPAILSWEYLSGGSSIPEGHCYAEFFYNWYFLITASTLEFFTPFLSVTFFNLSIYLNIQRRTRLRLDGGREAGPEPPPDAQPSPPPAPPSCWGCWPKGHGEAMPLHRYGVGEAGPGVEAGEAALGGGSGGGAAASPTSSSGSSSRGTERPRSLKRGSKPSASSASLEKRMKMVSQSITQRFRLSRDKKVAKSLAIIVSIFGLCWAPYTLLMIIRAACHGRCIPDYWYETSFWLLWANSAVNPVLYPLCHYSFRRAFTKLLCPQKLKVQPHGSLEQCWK
Outline: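 Rat striatum membranes (20 μg protein) incubated with [3H]-Nα-methylhistamine 1 nmol/L in 50 mmol/L Tris/HCl pH 7.4, 5 mmol/L EDTA, 1 hour at 25° C; bound ligand by filtration and scintillation counting. Nonspecific binding defined with 10 μmol/L thioperamide; % inhibition reported at 1 μmol/L compound.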

histamine H3 receptor [2] = biological target: T1, histamine H3 receptor; assay: Inhibitory effect on histamine release suppressive action of histamine H3 receptor agonist (Nα-methylhistamine) in rat forebrain synaptosomes; format: biochemical; conditions: 1 μmol/L test compound and 1 μmol/L Nα-methylhistamine, potassium 30 mmol/L stimulation, read-out: Inhibition ratio of the [3H]-histamine release suppressive action of Nα-methylhistamine
Description: To the forebrains of Sprague-Dawley male rats (6 to 8 weeks of age), a 30-fold volume of a 0.32 mol/L aqueous sucrose solution was added and the forebrains were homogenized. The resulting homogenate was centrifuged (1,000×g, 4° C., 10 min), and to the obtained supernatant, an equivalent volume of Krebs-Ringer solution [120 mmol/L sodium chloride, 0.8 mmol/L potassium chloride, 2.6 mmol/L calcium chloride, 0.67 mmol/L magnesium sulfate, 1.2 mmol/L potassium dihydrogen phosphate, 27.5 mmol/L sodium bicarbonate, 10 mmol/L glucose (pH 7.3)] was added, and the resulting mixture was centrifuged (10,000×g, 4° C., 15 min). To the obtained precipitate, a 15-fold volume of Krebs-Ringer solution was added to suspend the precipitate. Then, the concentration of protein in the resulting tissue homogenate (synaptosomes) was measured and used for a test.
To the synaptosomes (300 μg in terms of protein amount) prepared by the above-described method, a [^3H]-histidine solution [final concentration: […] (740 kBq)/mL]: 6 μl of a 37 MBq/mL (specific activity: […]) solution] was added, and the total volume was adjusted to 300 μL with Krebs-Ringer solution. Then, the resulting mixture was incubated at 37° C. for 30 minutes and centrifuged (10,000×g, 25° C., 3 min). To the resulting precipitate (synaptosomes), 300 μL of Krebs-Ringer solution was added, and the mixture was incubated at 37° C. for 5 minutes and centrifuged (10,000×g, 25° C., 3 min). This procedure was repeated 5 times, whereby washing of synaptosomes was carried out. The resulting synaptosomes were suspended in 100 μL of Krebs-Ringer solution, and the resulting suspension was used for the following procedure.
A test compound and N^α-methylhistamine were separately dissolved in Krebs-Ringer solution to give a concentration of 20 μmol/L (the resulting mixtures were referred to as a test compound solution and a N^α-methylhistamine solution, respectively). To 100 μL of the above-described suspended synaptosomes (300 μg in terms of protein amount), 140 μL of Krebs-Ringer solution was added. Then, 30 μL of the test compound solution and 30 μL of the N^α-methylhistamine solution were added thereto, and the resulting mixture was incubated at 37° C. for 2 minutes. Then, an equivalent volume of a stimulating solution [64 mmol/L sodium chloride, 56.8 mmol/L potassium chloride, 2.6 mmol/L calcium chloride, 0.67 mmol/L magnesium sulfate, 1.2 mmol/L potassium dihydrogen phosphate, 27.5 mmol/L sodium bicarbonate, 10 mmol/L glucose (pH 7.3)] (final potassium concentration: 30 mmol/L) was added, and the resulting mixture was incubated at 37° C. for 2 minutes to release [^3H]-histamine. The reaction mixture was centrifuged (10,000×g, 25° C., 3 min), and the obtained supernatant was passed through Amberlite CG-50 column (250 μL), and the non-adsorbed fractions were discarded. Then, 2 mL of 50 mmol/L [[…]]/hydrochloric acid (HCl) (pH 7.5) (Tris) was passed through the column 3 times, and 2 mL of distilled water, and 1.5 mL of a 0.2 mol/L aqueous sodium hydroxide solution were passed through the column in this order, and the eluted fractions were discarded. Then, 2 mL of a 0.2 mol/L aqueous sodium hydroxide solution was passed through the column, and the eluted fraction was recovered in a scintillation vial. Then, 8 mL of Ultimagold (Perkin Elmer) was added to the recovered eluted solution, and the radioactivity ([^3H]-histamine) was measured using a liquid scintillation counter. The inhibitory action of the test compound on the histamine release suppressive action of N^α-methylhistamine was evaluated by obtaining the inhibition ratio to the histamine release suppressive action in the presence of 1 μmol/L No-methylhistamine and 1 μmol/L of the test compound. The inhibition ratio of the [^3H]-histamine release suppressive action was calculated using the following Equation (2). […]

Row | Compound | inhibition at 1 µM (histamine H3 receptor [1]) [%] | inhibition at 1 µM (histamine H3 receptor [2]) [%] | melting point [°C]
1 | CC1CCCN1CCCN1CCN(CCN2CCCC2C)C1=C(C#N)C#N (centres unmarked) [Compound 11, {1-[2-(2-Methylpyrrolidin-1-yl)ethyl]-3-[3-(2-methylpyrrolidin-1-yl)propyl]imidazolidin-2-ylidene}malononitrile] | ≥ 80 | ≥ 70 | 69 to 71
2 | C[C@H]1CCCN1CCCN1CCN(CCN2CCC[C@@H]2C)C1=C(C#N)C#N [Compound 56, {1-[2-((S)-2-methylpyrrolidin-1-yl)ethyl]-3-[3-((S) 2-methylpyrrolidin-1-yl)propyl]imidazolidin-2-ylidene}malononitrile] | ≥ 80 | ≥ 70 | 70 to 72
3 | CC1CCCN1CCN1CCN(CCCN2CCCCC2)C1=C(C#N)C#N (centres unmarked) [Compound 57, {1-[2-(2-Methylpyrrolidin-1-yl)ethyl]-3-(3-piperidinopropyl)imidazolidin-2-ylidene}malononitrile] | ≥ 80 | ≥ 70 | 84 to 86
4 | C[C@H]1CCCN1CCN1CCN(CCCN2CCCCC2)C1=C(C#N)C#N [Compound 58, {1-[2-((S)-2-methylpyrrolidin-1-yl)ethyl]-3-(3-piperidinopropyl)imidazolidin-2-ylidene}malononitrile] | ≥ 80 | ≥ 70 | 95 to 96
5 | CC1CCCN1CCCN1CCN(CCCN2CCCC2C)C1=C(C#N)C#N (centres unmarked) [Compound 65, {1,3-Bis[3-(2-methylpyrrolidin-1-yl)propyl]imidazolidin-2-ylidene}malononitrile] | ≥ 80 | ≥ 70 | 89 to 93
6 | C[C@H]1CCCN1CCCN1CCN(CCCN2CCC[C@@H]2C)C1=C(C#N)C#N [Compound 115, {1,3-Bis[3-((S)-2-methylpyrrolidin-1-yl)propyl]imidazolidin-2-ylidene}malononitrile] | ≥ 80 | ≥ 70 | 79 to 80
7 | CC1CCCN1CCCN1CCN(CCCN2CCC[C@@H]2CO)C1=C(C#N)C#N (stereo partly drawn) [Compound 119, {1-[3-((R)-2-hydroxymethylpyrrolidin-1-yl)propyl]-3-[3-(2-methylpyrrolidin-1-yl)propyl]imidazolidin-2-ylidene}malononitrile] | ≥ 80 | ≥ 70 | 57 to 59
8 | N#CC(C#N)=C1N(CCCN2CCCCC2)CCN1C1CCN(Cc2ccccc2)CC1 [Compound 126, [1-(1-Benzylpiperidin-4-yl)-3-(3-piperidinopropyl)imidazolidin-2-ylidene]malononitrile] | ≥ 80 | ≥ 70 | –
9 | CN1CCC(N2CCN(CCCN3CCCCC3)C2=C(C#N)C#N)CC1 [Compound 129, [1-(1-Methylpiperidin-4-yl)-3-(3-piperidinopropyl)imidazolidin-2-ylidene]malononitrile] | ≥ 80 | ≥ 70 | –
10 | CC(C)N1CCC(N2CCN(CCCN3CCCCC3)C2=C(C#N)C#N)CC1 [Compound 130, [1-(1-Isopropylpiperidin-4-yl)-3-(3-piperidinopropyl)imidazolidin-2-ylidene]malononitrile] | ≥ 80 | ≥ 70 | –
11 | CC1CCCN1CCCN1CCN(CCCN2CCCC2C)C1=CS(=O)(=O)CC#N (centres unmarked) [Compound 137, {1,3-Bis[3-(2-methylpyrrolidin-1-yl)propyl]imidazolidin-2-ylidene}methanesulfonylacetonitrile] | ≥ 80 | ≥ 70 | 106 to 110
12 | N#CC(C#N)=C(NCCN1CCCCC1)N1CCC(N2CCCCC2)CC1 [Compound 143, [(2-Piperidinoethylamino)(4-piperidinopiperidino)methylene]malononitrile] | ≥ 80 | ≥ 70 | 198 to 200
13 | CN(CCN1CCCCC1)C(=C(C#N)C#N)N1CCC(N2CCCCC2)CC1 [Compound 144, {[Methyl(2-piperidinoethyl)amino](4-piperidinopiperidino)methylene}malononitrile] | ≥ 80 | ≥ 70 | 109 to 111
14 | CC1CCCN1CC1CCN(C(=C(C#N)C#N)N(C)CCN2CCCCC2)CC1 (centres unmarked) [Compound 149, {[N-methyl-N-(2-piperidinoethyl)amino][4-(2-methylpyrrolidin-1-ylmethyl)piperidino]methylene}malononitrile] | ≥ 80 | ≥ 70 | –

Results, then the compound that gave them:

Row | inhibition at 1 µM (histamine H3 receptor [1]) [%] | inhibition at 1 µM (histamine H3 receptor [2]) [%] | melting point [°C] | Compound
15 | ≥ 80 | ≥ 70 | 116 to 117 | CN(CCCN1CCCCC1)C(=C(C#N)C#N)N1CCC(N2CCCC2)CC1 [Compound 159, {[N-methyl-N-(3-piperidinopropyl)amino][4-(pyrrolidin-1-yl)piperidino]methylene}malononitrile]
16 | ≥ 80 | ≥ 70 | 117 to 118 | N#CC(C#N)=C(NCCCN1CCCCC1)N1CCC(N2CCCCC2)CC1 [Compound 160, [(4-Piperidinopiperidino)(3-piperidinopropylamino)methylene]malononitrile]
17 | ≥ 80 | ≥ 70 | – | CC(C)N1CCC(NC(=C(C#N)C#N)N2CCC(N3CCCCC3)CC2)CC1 [Compound 175, [(1-Isopropylpiperidin-4-ylamino)(4-piperidinopiperidino)methylene]malononitrile]
18 | ≥ 80 | ≥ 70 | – | C[C@H]1CCCN1CCN1CCN(CCN2CCC[C@@H]2C)C1=C(C#N)C#N [Compound 188, {1,3-Bis[2-((S)-2-methylpyrrolidin-1-yl)ethyl]imidazolidin-2-ylidene}malononitrile]
19 | ≥ 80 | ≥ 70 | – | CC(C)N1CCC(N2CCN(CCN3CCC[C@H]3C)C2=C(C#N)C#N)CC1 [Compound 213, {1-(1-Isopropylpiperidin-4-yl)-3-[2-((R)-2-methylpyrrolidin-1-yl)ethyl]imidazolidin-2-ylidene}malononitrile]
20 | ≥ 80 | ≥ 70 | – | N#CC(C#N)=C1N(CCCN2CCCCC2)CCN1C1CCN(CCF)CC1 [Compound 215, {1-[1-(2-Fluoroethyl)piperidin-4-yl]-3-(3-piperidinopropyl)imidazolidin-2-ylidene}malononitrile]
21 | ≥ 80 | ≥ 70 | – | CC(C)N1CCC(N2CCN(CCCN3CCOCC3)C2=C(C#N)C#N)CC1 [Compound 216, [1-(1-Isopropylpiperidin-4-yl)-3-(3-morpholinopropyl)imidazolidin-2-ylidene]malononitrile]
22 | ≥ 80 | ≥ 70 | – | C[C@H]1CCCN1CCCN1CCN(CCCN2CCC[C@@H]2C)C1=C(C#N)S(=O)(=O)c1ccccc1 [Compound 247, {1,3-Bis[3-((S)-2-methylpyrrolidin-1-yl)propyl]imidazolidin-2-ylidene}benzenesulfonylacetonitrile monohydrochloride]

Reference: patent US20090181948A1, “DIAMINE DERIVATIVE” (KYOWA HAKKO KOGYO CO., LTD., priority 2005, published 2009)
